PMC9188586, “Design, synthesis and evaluation of novel tetrahydropyridothienopyrimidin-ureas as cytotoxic and anti-angiogenic agents” (Scientific Reports, 2022)

Tests used:
[1] = system: HUVEC (human umbilical vein endothelial cell); experiment: MTT antiproliferative assay, HUVEC; type: cell-based; settings: for IC50: MTT assay, 48 h incubation
Experimental: (§1) Two series of new tetrahydropyridothienopyrimidines were evaluated for their cytotoxicity against a panel of cell lines, including MCF-7 (breast cancer), SW480 (colon cancer), PC-3 (prostate cancer), HEPG-2 (liver cancer) and HUVEC (human umbilical vein endothelial cell) using 3-(4,5-dimethyl- thiazol-2-yl)-2,5-diphenyltetrazolium bromide (MTT) assay. Sorafenib was used as a positive control. The cytotoxicity is expressed as the concentration that inhibits 50% of cell viability (IC50). […] The preliminary SAR is evaluated on the basis of cytotoxicity results of phenyl derivatives (11a–k) and pyridine derivatives (11l–11y).The mesomeric effect didn’t improve the cytotoxicity of compound 11d in the first series.
(§2) Cytotoxicity of the compounds was measured by detecting the ability of cells in transforming MTT into a purple formazan dye. The different cell lines were provided by the National Cell Bank of Iran (Pastor Institute, Tehran, Iran). The required materials and reagents were purchased from Sigma. After the cell culture in RPMI-1640 medium and DMEM containing 10% FBS (Gibco, Milano, Italy), the suspension of MCF-7 (7000) and other cells (5000) were poured into 96 well plates and incubated in a humidified incubator containing 5% CO2 at 37 °C for 24 h. Subsequently, a solution of the compounds in DMSO was added to these plates and incubated for 48 h. After incubation, the solution of 5% 3-(4,5-Dimethyl-2-thiazolyl)-2,5-diphenyl-2H-tetrazolium bromide (MTT) was added to all the wells and incubation was continued for another 4 h. The record of color intensity of the formazan solution was at 570 nm by Bio-Rad microplate reader (Model 680) which reflects the cell growth condition.

PC-3 (prostate cancer) = experiment: MTT antiproliferative assay, PC-3; type: cell-based; settings: 48 h incubation
Experimental: as §1, §2

SW480 (colon cancer) = experiment: MTT antiproliferative assay, SW480; type: cell-based
Experimental: as §1, §2

HEPG-2 (liver cancer) = experiment: MTT antiproliferative assay, HEPG-2; type: cell-based
Experimental: as §1, §2

MCF-7 (breast cancer) = experiment: MTT antiproliferative assay, MCF-7; type: cell-based
Experimental: as §1, §2

[2] = Homo sapiens, SW480, 48 h incubation
[3] = Homo sapiens, HepG2, 48 h incubation
[4] = Homo sapiens, MCF7, 48 h incubation

Row | melting point [°C] | IC50 (PC-3 (prostate cancer)) [µM] | IC50 (SW480 (colon cancer); [2]) [µM] | IC50 (HEPG-2 (liver cancer); [3]) [µM] | IC50 (MCF-7 (breast cancer); [4]) [µM] | IC50 (SW480 (colon cancer); 48 h incubation) [µM] | IC50 (HEPG-2 (liver cancer); 48 h incubation) [µM] | IC50 (MCF-7 (breast cancer); 48 h incubation) [µM] | SMILES | IC50 ([1]; Homo sapiens, HUVEC) [µM] | IC50 [1] [µM] | increase of cytotoxicity against HUVEC on moving chlorine to para position ([1]; 11t vs 11u) [folds]
1 | 230 to 232 | 34.4 ± 1.64 | 24.5 ± 0.72 | 7.34 ± 0.01 | 23.34 ± 0.18 | – | – | – | O=C(Nc1ccccc1)Nc1nnc(Sc2ncnc3sc4c(c23)CCN(Cc2ccccc2)C4)s1 [Compound 11a, 1-(5-((7-benzyl-5,6,7,8-tetrahydropyrido[4',3':4,5]thieno[2,3-d]pyrimidin-4-yl)thio)-1,3,4-thiadiazol-2-yl)-3-phenylurea] | 19.06 ± 0.12 | – | –
2 | – | 32.21 ± 0.3 | 70.2 ± 2.71 | 24.6 ± 0.39 | 42.87 ± 0.32 | – | – | – | Cc1ccc(NC(=O)Nc2nnc(Sc3ncnc4sc5c(c34)CCN(Cc3ccccc3)C5)s2)cc1 [Compound 11c, 1-(5-((7-benzyl-5,6,7,8-tetrahydropyrido[4',3':4,5]thieno[2,3-d]pyrimidin-4-yl)thio)-1,3,4-thiadiazol-2-yl)-3-(p-tolyl)urea] | 26.12 ± 0.15 | – | –
3 | 280 to 282 | 44 ± 1.52 | 45.1 ± 1.7 | 43.92 ± 0.16 | 51.92 ± 0.47 | – | – | – | COc1ccc(NC(=O)Nc2nnc(Sc3ncnc4sc5c(c34)CCN(Cc3ccccc3)C5)s2)cc1 [Compound 11d, 1-(5-((7-benzyl-5,6,7,8-tetrahydropyrido[4',3':4,5]thieno[2,3-d]pyrimidin-4-yl)thio)-1,3,4-thiadiazol-2-yl)-3-(4-methoxyphenyl)urea] | 44.15 ± 0.22 | – | –
4 | 144 to 146 | 42.8 ± 1.82 | 65.6 ± 1.74 | 9.84 ± 0.06 | 13 ± 0.18 | – | – | – | O=C(Nc1cccc(F)c1)Nc1nnc(Sc2ncnc3sc4c(c23)CCN(Cc2ccccc2)C4)s1 [Compound 11e, 1-(5-((7-benzyl-5,6,7,8-tetrahydropyrido[4',3':4,5]thieno[2,3-d]pyrimidin-4-yl)thio)-1,3,4-thiadiazol-2-yl)-3-(3-fluorophenyl)urea] | 27.48 ± 0.07 | – | –
5 | 166 to 168 | 41.4 ± 0.46 | 61.3 ± 2.02 | 30.7 ± 0.44 | 45.04 ± 0.41 | – | – | – | O=C(Nc1ccc(F)cc1)Nc1nnc(Sc2ncnc3sc4c(c23)CCN(Cc2ccccc2)C4)s1 [Compound 11f, 1-(5-((7-benzyl-5,6,7,8-tetrahydropyrido[4',3':4,5]thieno[2,3-d]pyrimidin-4-yl)thio)-1,3,4-thiadiazol-2-yl)-3-(4-fluorophenyl)urea] | 47.98 ± 0.27 | – | –
6 | – | 41.6 ± 1.1 | 56.5 ± 1.28 | 46.96 ± 0.35 | 62.4 ± 2.94 | – | – | – | O=C(Nc1ccc(Cl)cc1)Nc1nnc(Sc2ncnc3sc4c(c23)CCN(Cc2ccccc2)C4)s1 [Compound 11g, 1-(5-((7-benzyl-5,6,7,8-tetrahydropyrido[4',3':4,5]thieno[2,3-d]pyrimidin-4-yl)thio)-1,3,4-thiadiazol-2-yl)-3-(4-chlorophenyl)urea] | 27.29 ± 0.19 | – | –
7 | – | 41.8 ± 1.22 | 69.6 ± 1.88 | 3.33 ± 0.07 | 50.8 ± 0.54 | – | – | – | Cc1ccc(NC(=O)Nc2nnc(Sc3ncnc4sc5c(c34)CCN(Cc3ccccc3)C5)s2)cc1Cl [Compound 11i, 1-(5-((7-benzyl-5,6,7,8-tetrahydropyrido[4',3':4,5]thieno[2,3-d]pyrimidin-4-yl)thio)-1,3,4-thiadiazol-2-yl)-3-(3-chloro-4-methylphenyl)urea] | 24.63 ± 0.22 | – | –
8 | 181 to 183 | 73.8 ± 2.92 | 46.8 ± 1.13 | 63 ± 0.64 | 68.94 ± 0.63 | – | – | – | O=C(Nc1cccc(C(F)(F)F)c1)Nc1nnc(Sc2ncnc3sc4c(c23)CCN(Cc2ccccc2)C4)s1 [Compound 11j, 1-(5-((7-benzyl-5,6,7,8-tetrahydropyrido[4',3':4,5]thieno[2,3-d]pyrimidin-4-yl)thio)-1,3,4-thiadiazol-2-yl)-3-(3-(trifluoromethyl)phenyl)urea] | 67.1 ± 1.85 | – | –
9 | – | 23.15 ± 0.21 | 63.5 ± 1.37 | 28.46 ± 0.25 | 24.66 ± 0.24 | – | – | – | O=C(Nc1ccc(Cl)c(C(F)(F)F)c1)Nc1nnc(Sc2ncnc3sc4c(c23)CCN(Cc2ccccc2)C4)s1 [Compound 11k, 1-(5-((7-benzyl-5,6,7,8-tetrahydropyrido[4',3':4,5]thieno[2,3-d]pyrimidin-4-yl)thio)-1,3,4-thiadiazol-2-yl)-3-(4-chloro-3-(trifluoromethyl)phenyl)urea] | 37.56 ± 0.31 | – | –
10 | 191 to 193 | 33.6 ± 1.41 | 65.8 ± 0.28 | 69.32 ± 0.52 | 14.63 ± 0.07 | – | – | – | COc1cccc(NC(=O)Nc2nnc(Sc3ncnc4sc5c(c34)CCN(Cc3ccncc3)C5)s2)c1 [Compound 11o, 1-(3-methoxyphenyl)-3-(5-((7-(pyridin-4-ylmethyl)-5,6,7,8-tetrahydropyrido[4',3':4,5]thieno[2,3-d]pyrimidin-4-yl)thio)-1,3,4-thiadiazol-2-yl)urea] | 20.6 ± 0.5 | – | –
11 | – | 43.5 ± 1.62 | – | – | – | 29.4 ± 1.01 | 67.4 ± 0.33 | 3.72 ± 0.55 | COc1ccc(NC(=O)Nc2nnc(Sc3ncnc4sc5c(c34)CCN(Cc3ccncc3)C5)s2)cc1 [Compound 11p, (4-Methoxyphenyl)-3-(5-((7-(pyridin-4-ylmethyl)-5,6,7,8-tetrahydropyrido[4',3':4,5]thieno[2,3-d]pyrimidin-4-yl)thio)-1,3,4-thiadiazol-2-yl)urea] | – | 2.86 ± 0.05 | –
12 | 243 to 246 | 4.5 ± 0.03 | 21.8 ± 0.72 | 74.3 ± 2.12 | 9.17 ± 0.04 | – | – | – | O=C(Nc1cccc(F)c1)Nc1nnc(Sc2ncnc3sc4c(c23)CCN(Cc2ccncc2)C4)s1 [Compound 11q, 1-(3-fluorophenyl)-3-(5-((7-(pyridin-4-ylmethyl)-5,6,7,8-tetrahydropyrido[4',3':4,5]thieno[2,3-d]pyrimidin-4-yl)thio)-1,3,4-thiadiazol-2-yl)urea] | 10.13 ± 0.05 | – | –
13 | – | 18.98 ± 0.11 | 66.3 ± 1.24 | 67.5 ± 1.38 | 5.69 ± 0.03 | – | – | – | O=C(Nc1ccc(F)cc1)Nc1nnc(Sc2ncnc3sc4c(c23)CCN(Cc2ccncc2)C4)s1 [Compound 11r, 1-(4-fluorophenyl)-3-(5-((7-(pyridin-4-ylmethyl)-5,6,7,8-tetrahydropyrido[4',3':4,5]thieno[2,3-d]pyrimidin-4-yl)thio)-1,3,4-thiadiazol-2-yl)urea] | 48.2 ± 0.62 | – | –
14 | 229 to 231 | 8.94 ± 0.03 | 30.5 ± 0.12 | 26.26 ± 0.24 | 4.69 ± 0.09 | – | – | – | O=C(Nc1nnc(Sc2ncnc3sc4c(c23)CCN(Cc2ccncc2)C4)s1)Nc1ccccc1Cl [Compound 11s, 1-(2-chlorophenyl)-3-(5-((7-(pyridin-4-ylmethyl)-5,6,7,8-tetrahydropyrido[4',3':4,5]thieno[2,3-d]pyrimidin-4-yl)thio)-1,3,4-thiadiazol-2-yl)urea] | 6.87 ± 0.03 | – | –
15 | – | 3.02 ± 1.12 | 14.6 ± 0.32 | 85 ± 3.4 | 12.68 ± 0.05 | – | – | – | O=C(Nc1cccc(Cl)c1)Nc1nnc(Sc2ncnc3sc4c(c23)CCN(Cc2ccncc2)C4)s1 [Compound 11t, 1-(3-chlorophenyl)-3-(5-((7-(pyridin-4-ylmethyl)-5,6,7,8-tetrahydropyrido[4',3':4,5]thieno[2,3-d]pyrimidin-4-yl)thio)-1,3,4-thiadiazol-2-yl)urea] | 67 ± 2.02 | – | –
16 | 188 to 190 | 4.96 ± 0.18 | 60.7 ± 1.13 | 27.8 ± 1.84 | 8.1 ± 0.02 | – | – | – | O=C(Nc1ccc(Cl)cc1)Nc1nnc(Sc2ncnc3sc4c(c23)CCN(Cc2ccncc2)C4)s1 [Compound 11u, 1-(4-chlorophenyl)-3-(5-((7-(pyridin-4-ylmethyl)-5,6,7,8-tetrahydropyrido[4',3':4,5]thieno[2,3-d]pyrimidin-4-yl)thio)-1,3,4-thiadiazol-2-yl)urea] | 2.08 ± 0.01 | – | ~30
17 | – | 55.3 ± 1.82 | 67.7 ± 1.55 | 26.4 ± 0.9 | 10.37 ± 0.03 | – | – | – | O=C(Nc1ccc(Cl)c(Cl)c1)Nc1nnc(Sc2ncnc3sc4c(c23)CCN(Cc2ccncc2)C4)s1 [Compound 11v, 1-(3,4-dichlorophenyl)-3-(5-((7-(pyridin-4-ylmethyl)-5,6,7,8-tetrahydropyrido[4',3':4,5]thieno[2,3-d]pyrimidin-4-yl)thio)-1,3,4-thiadiazol-2-yl)urea] | 68.4 ± 1.44 | – | –
18 | 157 to 159 | 9.42 ± 0.63 | 71.9 ± 1.1 | 38.5 ± 0.42 | 6.8 ± 0.05 | – | – | – | Cc1ccc(NC(=O)Nc2nnc(Sc3ncnc4sc5c(c34)CCN(Cc3ccncc3)C5)s2)cc1Cl [Compound 11w, 1-(3-chloro-4-methylphenyl)-3-(5-((7-(pyridin-4-ylmethyl)-5,6,7,8-tetrahydropyrido[4',3':4,5]thieno[2,3-d]pyrimidin-4-yl)thio)-1,3,4-thiadiazol-2-yl)urea] | 6.23 ± 0.03 | – | –
